Assay [1] has as its system Wnt pathway (Sp5-Luc reporter, SW480 cells). The experiment in a line: Sp5-Luc reporter gene screening assay for Wnt activity in SW480 colon carcinoma cells. In kind it is cell-based. Particulars: Homo sapiens. The text has this: The screening assay for Wnt activity is described as follows. Reporter cell lines can be generated by stably transducing cancer cell lines (e.g., colon cancer) or primary cells (e.g., IEC-6 intestinal cells) with a lentiviral construct that includes a Wnt-responsive promoter driving expression of the firefly luciferase gene.
SW480 colon carcinoma cells were transduced with a lentiviral vector expressing luciferase with a human Sp5 promoter consisting of a sequence of eight TCF/LEF binding sites. SW480 cells stably expressing the Sp5-Luc reporter gene and a hygromycin resistance gene were selected by treatment with 150 μg/ml of hygromycin for 7 days. These stably transduced SW480 cells were expanded in cell culture and used for all further screening activities. For Sp5-Luc reporter gene assays, the cells were plated at 10,000 cells/well in 96-well plates with growth medium containing 10% fetal calf serum and incubated overnight at 37° C. and 5% CO2. Each compound was dissolved in DMSO as a 10 mM stock in standard j-vials and used to prepare compound source plates in dose-response format with 3-fold serial dilutions and a 10 mM top concentration. Compound transfer from serially diluted source plates to assay plates containing the cells was accomplished using a pintool (Multimek 96, Beckman equipped with V&P Scientific FP1S50H pins) based liquid handling protocol. This protocol used a slotted pin to transfer 50 nl of compound from a source plate well to an assay plate well containing 50 μl of cells in growth medium. […] Control wells received 50 nl of DMSO treatment for normalization and calculating IC50 values. The treated cells were incubated at 37° C. and 5% CO2 for an additional forty-two hours. Following incubation, the growth medium was removed and 50 μl of BrightGlo luminescence reagent (Promega) was added to each well of the 96-well assay plates. The plates were placed on an orbital shaker for 5 min and then luminescence was quantified on the Victor3 (Perkin Elmer) plate reader. Readings were normalized to DMSO only treated cells, and normalized activities were utilized for IC50 calculations using the dose-response log (inhibitor) vs. response-variable slope (four parameters) nonlinear regression feature available in GraphPad Prism 5.0 or 6.0.
For orientation: A reporter such as luciferase makes a cellular process visible.

The next assay has as its system LL29 cells. The experiment in a line: Inhibition of the fibrotic process (αSMA staining) in TGF-β1 treated primary human fibroblasts from IPF patients. It is filed as cell-based. The settings on record: Fibroblast, 96 h, TGF-β1 20 ng/mL, 4 days, dose-response 10 μM to 1.87 nM, read-out: Inhibition of fibrosis EC50. The text has this:
The above synthesized compounds were screened using primary human fibroblasts (derived from IPF patients) treated with TGF-β1 to determine their ability to inhibit the fibrotic process.
Primary human fibroblasts derived from IPF patients (LL29 cells) [^1Xiaoqiu Liu, et. al., “Fibrotic Lung Fibroblasts Show Blunted Inhibition by cAMP Due to Deficient cAMP Response Element-Binding Protein Phosphorylation”, Journal of Pharmacology and Experimental Therapeutics (2005), 315(2), 678-687; ^2Watts, K. L., et. al., “RhoA signaling modulates cyclin D1 expression in human lung fibroblasts; implications for idiopathic pulmonary fibrosis”, Respiratory Research (2006), 7(1), 88] were obtained from American Type Culture Collection (ATCC) and expanded in F12 medium supplemented with 15% Fetal Bovine Serum and Penicillin/Streptomycin.
Each compound was dissolved in DMSO as a 10 mM stock and used to prepare compound source plates. Serial dilution (1:2, 11-point dose-response curves from 10 μM to 1.87 nM) and compound transfer was performed using the ECHO 550 (Labcyte, Sunnyvale, Calif.) into 384-well clear bottom assay plates (Greiner Bio-One) with appropriate DMSO backfill for a final DMSO concentration of 0.1%. LL29 cells were plated at 1,500 cells/well in 80 μl/well F12 medium supplemented with 1% Fetal Bovine Serum. One hour after addition of the cells, TGF-β1 (Peprotech; 20 ng/mL) was added to the plates to induce fibrosis (ref. 1 and 2 above). Wells treated with TGF-β1 and containing DMSO were used as controls. Cells were incubated at 37° C. and 5% CO2 for 4 days. Following incubation for 4 days, SYTOX green nucleic acid stain (Life Technologies [Thermo Fisher Scientific]) was added to the wells at a final concentration of 1 uM and incubated at room temperature for 30 min. Cells were then fixed using 4% formaldehyde (Electron Microscopy Sciences), washed 3 times with PBS followed by blocking and permeabilization using 3% Bovine Serum Albumin (BSA; Sigma) and 0.3% Triton X-100 (Sigma) in PBS. Cells were then stained with antibody specific to α-smooth muscle actin (αSMA; Abcam) (ref. 1 and 2 above) in 3% Bovine Serum Albumin (BSA; Sigma) and 0.3% Triton X-100 (Sigma) in PBS, and incubated overnight at 4° C. Cells were then washed 3 times with PBS, followed by incubation with Alexa Flor-647 conjugated secondary antibody (Life Technologies [Thermo Fisher Scientific]) and DAPI at room temperature for 1 hour. Cells were then washed 3 times with PBS and plates were sealed for imaging. αSMA staining was imaged by excitation at 630 nm and emission at 665 nm and quantified using the Compartmental Analysis program on the CellInsight CX5 (Thermo Scientific). Dead or apoptotic cells were excluded from analysis based on positive SYTOX green staining. % of total cells positive for αSMA were counted in each well and normalized to the average of 11 wells treated with TGF-31 on the same plate using Dotmatics' Studies Software. The normalized averages (fold change over untreated) of 3 replicate wells for each compound concentration were used to create dose-responses curves and EC50 values were calculated using non-linear regression curve fit in the Dotmatics' Studies Software. The EC50 values are reported.

The record followed here is US9844536B2, “3-(1H-imidazo[4,5-C]pyridin-2-yl)-1H-pyrazolo[3,4-C]pyridine and therapeutic uses thereof” (Samumed, LLC, priority 2014, dated 2017).

Molecules are shown by their SMILES. pEC50, pIC50: −log10 of the molar value.

A word on the pIC50: it is the negative decadic logarithm of the IC50, by convention in mol/L. In general, pEC50 refers to −log10 of the EC50, conventionally taken in molar units. In assay [1], `CCNCc1cncc(-c2cc3c(-c4nc5c(-c6ccoc6)nccc5[nH]4)n[nH]c3cn2)c1` [Compound 292, N-((5-(3-(4-(Furan-3-yl)-1H-imidazo[4,5-c]pyridin-2-yl)-1H-pyrazolo[3,4-c]pyridin-5-yl)pyridin-3-yl)methyl)ethanamine] gave a pIC50 of 7.09. For the same compound, the negative logarithm of the EC50 (pEC50) in the assay with LL29 cells was at least 8.05.

Turning to `CN(C)CCNc1cc(F)cc(-c2nccc3[nH]c(-c4n[nH]c5cnc(-c6cncc(CNCC7CCCC7)c6)cc45)nc23)c1` [Compound 466, N^1-(3-(2-(5-(5-(((Cyclopentylmethyl)amino)methyl)pyridin-3-yl)-1H-pyrazolo[3,4-c]pyridin-3-yl)-1H-imidazo[4,5-c]pyridin-4-yl)-5-fluorophenyl)-N2,N2-dimethylethane-1,2-diamine], in assay [1], the pIC50 was 6.47. In the assay with LL29 cells, the pEC50 is 7.13.

`O=C(Nc1cncc(-c2cc3c(-c4nc5c(-c6cccc(F)c6)nccc5[nH]4)n[nH]c3cn2)c1)C1CC1` [Compound 19, N-(5-(3-(4-(3-Fluorophenyl)-1H-imidazo[4,5-c]pyridin-2-yl)-1H-pyrazolo[3,4-c]pyridin-5-yl)pyridin-3-yl)cyclopropanecarboxamide] gave a pIC50 in assay [1] of 7.59. Further, in the assay with LL29 cells, the pEC50 is at least 8.05.

`CCCC(=O)Nc1cncc(-c2cc3c(-c4nc5c(-c6cccs6)nccc5[nH]4)n[nH]c3cn2)c1` [Compound 329, N-(5-(3-(4-(Thiophen-2-yl)-1H-imidazo[4,5-c]pyridin-2-yl)-1H-pyrazolo[3,4-c]pyridin-5-yl)pyridin-3-yl)butyramide]: the pIC50 in assay [1] is 7.76. The negative-log EC50 (pEC50) with LL29 cells was at most 5.00.

For the compound `CC(C)C(=O)Nc1cncc(-c2cc3c(-c4nc5c(-c6ccccc6F)nccc5[nH]4)n[nH]c3cn2)c1` [Compound 61, N-(5-(3-(4-(2-Fluorophenyl)-1H-imidazo[4,5-c]pyridin-2-yl)-1H-pyrazolo[3,4-c]pyridin-5-yl)pyridin-3-yl)isobutyramide], in assay [1], the pIC50 was 6.72. Besides, the pEC50 with LL29 cells was 6.82.

In assay [1], `CN1CCN(c2nccc3[nH]c(-c4n[nH]c5cnc(-c6cncnc6)cc45)nc23)CC1` [Compound 234, 3-(4-(4-Methylpiperazin-1-yl)-1H-imidazo[4,5-c]pyridin-2-yl)-5-(pyrimidin-5-yl)-1H-pyrazolo[3,4-c]pyridine] showed a negative logarithm of the IC50 (pIC50) of 6.13. Also, in the assay with LL29 cells, the negative-log EC50 (pEC50) is 5.86.

Compound `CC(=O)c1ccc(-c2nccc3[nH]c(-c4n[nH]c5cnc(-c6cncc(NC(=O)C7CCCCC7)c6)cc45)nc23)s1` [Compound 412, N-(5-(3-(4-(5-Acetylthiophen-2-yl)-1H-imidazo[4,5-c]pyridin-2-yl)-1H-pyrazolo[3,4-c]pyridin-5-yl)pyridin-3-yl)cyclohexanecarboxamide] had a pIC50 in assay [1] of under 5.00. Also, the negative logarithm of the EC50 (pEC50) in the assay on LL29 cells is at least 8.05.

As to `CCNCc1cncc(-c2cc3c(-c4nc5c(-c6ccc(C)s6)nccc5[nH]4)n[nH]c3cn2)c1` [Compound 370, N-((5-(3-(4-(5-Methylthiophen-2-yl)-1H-imidazo[4,5-c]pyridin-2-yl)-1H-pyrazolo[3,4-c]pyridin-5-yl)pyridin-3-yl)methyl)ethanamine], the pIC50 in assay [1] was 7.41. Moreover, the negative-log EC50 (pEC50) with LL29 cells is 6.24.

In assay [1], `CCNCc1cncc(-c2cc3c(-c4nc5c(-c6cc(F)cc(NCCN(C)C)c6)nccc5[nH]4)n[nH]c3cn2)c1` [Compound 448, N^1-(3-(2-(5-(5-((Ethylamino)methyl)pyridin-3-yl)-1H-pyrazolo[3,4-c]pyridin-3-yl)-1H-imidazo[4,5-c]pyridin-4-yl)-5-fluorophenyl)-N2,N2-dimethylethane-1,2-diamine] gave a negative-log IC50 (pIC50) of 6.40. Also, in the assay with LL29 cells, the pEC50 was at most 5.00.

In assay [1], `CCC(=O)Nc1cncc(-c2cc3c(-c4nc5c(N6CCCCC6)nccc5[nH]4)n[nH]c3cn2)c1` [Compound 157, N-(5-(3-(4-(Piperidin-1-yl)-1H-imidazo[4,5-c]pyridin-2-yl)-1H-pyrazolo[3,4-c]pyridin-5-yl)pyridin-3-yl)propionamide] showed a negative logarithm of the IC50 (pIC50) of 6.84. Also, in the assay with LL29 cells, the negative logarithm of the EC50 (pEC50) was 6.46.

`CC(C)(C)C(=O)Nc1cncc(-c2cc3c(-c4nc5c(-c6ccccc6F)nccc5[nH]4)n[nH]c3cn2)c1` [Compound 60, N-(5-(3-(4-(2-Fluorophenyl)-1H-imidazo[4,5-c]pyridin-2-yl)-1H-pyrazolo[3,4-c]pyridin-5-yl)pyridin-3-yl)pivalamide] had a pIC50 in assay [1] of 6.94. Further, the pEC50 with LL29 cells is 6.06.

In turn, `CN(C)c1cncc(-c2cc3c(-c4nc5c(N6CCCCC6)nccc5[nH]4)n[nH]c3cn2)c1` [Compound 163, N,N-Dimethyl-5-(3-(4-(piperidin-1-yl)-1H-imidazo[4,5-c]pyridin-2-yl)-1H-pyrazolo[3,4-c]pyridin-5-yl)pyridin-3-amine] had a pIC50 in assay [1] of 6.51. Besides, the pEC50 in the assay on LL29 cells was at least 8.05.

Turning to `Cc1ccncc1-c1cc2c(-c3nc4c(-c5ccsc5)nccc4[nH]3)n[nH]c2cn1` [Compound 265, 5-(4-Methylpyridin-3-yl)-3-(4-(thiophen-3-yl)-1H-imidazo[4,5-c]pyridin-2-yl)-1H-pyrazolo[3,4-c]pyridine], in assay [1], the negative logarithm of the IC50 (pIC50) was 7.22. Also, the pEC50 with LL29 cells was 6.80.

As to `O=C(Nc1cncc(-c2cc3c(-c4nc5c(-c6ccccc6F)nccc5[nH]4)n[nH]c3cn2)c1)C1CCCC1` [Compound 73, N-(5-(3-(4-(2-Fluorophenyl)-1H-imidazo[4,5-c]pyridin-2-yl)-1H-pyrazolo[3,4-c]pyridin-5-yl)pyridin-3-yl)cyclopentanecarboxamide], the pIC50 in assay [1] is 6.58. Moreover, the pEC50 in the assay with LL29 cells is 6.27.

For `Cc1ccc(-c2nccc3[nH]c(-c4n[nH]c5cnc(-c6cncc(CN7CCCCC7)c6)cc45)nc23)s1` [Compound 379, 3-(4-(5-Methylthiophen-2-yl)-1H-imidazo[4,5-c]pyridin-2-yl)-5-(5-(piperidin-1-ylmethyl)pyridin-3-yl)-1H-pyrazolo[3,4-c]pyridine], the pIC50 in assay [1] is 7.14. In addition, the pEC50 in the assay with LL29 cells is at least 8.05.

`CS(=O)(=O)NCc1cc(F)cc(-c2nccc3[nH]c(-c4n[nH]c5cnc(-c6cncnc6)cc45)nc23)c1` [Compound 442, N-(3-Fluoro-5-(2-(5-(pyrimidin-5-yl)-1H-pyrazolo[3,4-c]pyridin-3-yl)-1H-imidazo[4,5-c]pyridin-4-yl)benzyl)methanesulfonamide]: in assay [1], the pIC50 is 7.51. For the same compound, the pEC50 in the assay on LL29 cells is at least 8.05.

With `Oc1cncc(-c2cc3c(-c4nc5c(-c6cccc(F)c6)nccc5[nH]4)n[nH]c3cn2)c1` [Compound 949, 5-(3-(4-(3-Fluorophenyl)-1H-imidazo[4,5-c]pyridin-2-yl)-1H-pyrazolo[3,4-c]pyridin-5-yl)pyridin-3-ol], the pIC50 in assay [1] was 7.55. Moreover, in the assay with LL29 cells, the pEC50 is at most 5.00.
